# Source: patent US20150307461A1, “ANTIVIRAL COMPOUNDS” (priority 2012, published 2015)
# Key:
# Test in all cases: microbe, parasite or virus in culture
# [1] = test system: pseudotyped VSV G particles (VSVpp); format: cell-based; settings: Vesicular stomatitis virus, 72 h, read-out: VSVpp (EC50, μM)
# [2] = test system: Pseudotyped HCV GT1b particles (HCVpp); format: cell-based, HCV GT1b Con1 strain; settings: Hepatitis C virus, 72 h, read-out: HCVpp GT-1b (EC50, μM)
# [3] = test system: Pseudotyped HCV GT1a particles (HCVpp); format: cell-based, HCV GT1a H77 strain; settings: Hepatitis C virus, 72 h, read-out: HCVpp GT-1a (EC50, μM)
Structure (SMILES),EC50 [1],EC50 [2],EC50 [3]
Nc1nc(Nc2cc(Cl)c(C3CC3)c(Cl)c2)n[nH]1 [Compound I-39],37.9 µM,0.574 µM,0.015 µM
"N#Cc1c(Cl)cc(Nc2n[nH]c(N)n2)cc1C(F)(F)F [Compound I-43, 4-(5-amino-1H-1,2,4-triazol-3-ylamino)-2-chloro-6-(trifluoromethyl)benzonitrile]",30.3 µM,0.146 µM,0.038 µM
"N#Cc1cc(Cl)cc(Nc2n[nH]c(N)n2)c1 [Compound I-48, 3-(5-Amino-1H-[1,2,4]triazol-3-ylamino)-5-chloro-benzonitrile]",100 µM,5.65 µM,0.558 µM
"Nc1nc(Nc2cc(Cl)cc(C(F)(F)F)c2)n[nH]1 [Compound I-50, N^3-(3-Chloro-5-trifluoromethyl-phenyl)-1H-[1,2,4]triazole-3,5-diamine]",100 µM,1.1 µM,0.094 µM
"Nc1nc(Nc2ccc(Cl)c(C(F)(F)F)c2)n[nH]1 [Compound I-51, N^3-(4-Chloro-3-trifluoromethyl-phenyl)-1H-[1,2,4]triazole-3,5-diamine]",53.7 µM,3.44 µM,0.475 µM
"Nc1nc(Nc2cccc(OC(F)(F)F)c2)n[nH]1 [Compound I-52, N^3-(3-Trifluoromethoxy-phenyl)-1H-[1,2,4]triazole-3,5-diamine]",100 µM,12.6 µM,2.39 µM
"CC(C)c1cccc(Nc2n[nH]c(N)n2)c1 [Compound I-56, N^3-(3-Isopropyl-phenyl)-1H-[1,2,4]triazole-3,5-diamine]",100 µM,19.6 µM,8.36 µM
"Nc1nc(Nc2cc(F)cc(C(F)(F)F)c2)n[nH]1 [Compound I-57, N^3-(3-Fluoro-5-trifluoromethyl-phenyl)-1H-[1,2,4]triazole-3,5-diamine]",100 µM,0.624 µM,0.146 µM
"Nc1nc(Nc2cc(Cl)c(F)c(C(F)(F)F)c2)n[nH]1 [Compound I-60, N^3-(3-Chloro-4-fluoro-5-trifluoromethyl-phenyl)-1H-[1,2,4]triazole-3,5-diamine]",33.3 µM,0.489 µM,0.071 µM
"Nc1nc(Nc2cccc(S(F)(F)(F)(F)F)c2)n[nH]1 [Compound I-70, N*3*-(3-pentafluorosulfur-phenyl)-1H-[1,2,4]triazole-3,5-diamine]",100 µM,1.1 µM,0.152 µM
"Nc1nc(Nc2cc(F)cc(S(F)(F)(F)(F)F)c2)n[nH]1 [Compound I-73, N*3*-(3-Fluoro-5-pentafluorosulfur-phenyl)-1H-[1,2,4]triazole-3,5-diamine]",100 µM,0.188 µM,0.035 µM
"CC(C)(C)C#Cc1c(Cl)cc(Nc2n[nH]c(N)n2)cc1Cl [Compound I-79, N^3-[3,5-Dichloro-4-(3,3-dimethyl-but-1-ynyl)-phenyl]-1H-[1,2,4]triazole-3,5-diamine]",66 µM,3.31 µM,0.051 µM
"CC(C)(C)C#Cc1ccc(Nc2n[nH]c(N)n2)cc1Cl [Compound I-80, N^3-[3-Chloro-4-(3,3-dimethyl-but-1-ynyl)-phenyl]-1H-[1,2,4]triazole-3,5-diamine]",91.6 µM,11.2 µM,1.12 µM
"Nc1nc(Nc2cc(F)c(Br)c(S(F)(F)(F)(F)F)c2)n[nH]1 [Compound I-83, N*3*-(4-Bromo-3-fluoro-5-pentafluorosulfur-phenyl)-1H-[1,2,4]triazole-3,5-diamine]",32.5 µM,0.17 µM,0.076 µM
